Results: US20230321287A1, “RADIOLABELLED GRPR-ANTAGONIST FOR USE AS THERAGNOSTIC” (NOVARTIS AG, priority 2019, published 2023)

Assays:
GRPR [1] = biological target: T1, GRPR (Homo sapiens, UniProt P30550); assay: lesion-level analysis, [68Ga]-NeoB PET versus conventional imaging; type: in vivo; design: from tissue; host or cells: tumour lesions in patients (breast, prostate, colorectal, NSCL, SCL cancer), in vivo
Experimental: PET/CT or PET/MRI imaging is performed after the compound 1 administration ideally at 2 h 30 min ±30 min.
The spleen is the reference region to assess pathological [68Ga]-NeoB uptake.
NeoB in patients with malignancies known to overexpress GRPR.

[2] = maximum injected activity of 250 MBq
clinical [3] = details: human
Source text: To obtain SUVmean aorta, a spherical volume with a diameter of two (2) cm should be measured within the aortic arch. All SUVr values above one (1) are considered as positive GRPR overexpression.
SUVr is the ratio between SUV mean of each lesion detected by [^68Ga]-NeoBOMB1 and the SUVmean of the region of reference.

clinical [4] = details: human, tumor lesions; for SUV at 2.5 h / SUV at 1.5 h: non-dosimetry group; for SUV at 2.5 h: breast tumors, 2 h 30 minutes; for SUV at 1.5 h: prostatic tumors, 1 h 30 minutes
Source text: (§1) The primary objective was to characterize preliminary targeting properties of [68Ga] NeoB in patients with malignancies known to overexpress GRPR. The primary efficacy endpoints were: • Number and location of tumor lesions detected by [68Ga]-NeoBOMB1 overall and for each tumor type • Calculation of the ratio tumor/background standard uptake value (SUV) and %injected dose per gram of tissue (ID/g) and calculation of absorbed dose (mGy/MBq) in tumor overall and for each tumor type.
(§2) The dosimetry group comprised only patients with breast cancer (N=2).

GRPR [5] = biological target: T1, GRPR; assay: clinical; details: dosimetry group, breast cancer N=2
Source text: as §1, §2

[6] = in vivo

T1 sequence (P30550 whole entry): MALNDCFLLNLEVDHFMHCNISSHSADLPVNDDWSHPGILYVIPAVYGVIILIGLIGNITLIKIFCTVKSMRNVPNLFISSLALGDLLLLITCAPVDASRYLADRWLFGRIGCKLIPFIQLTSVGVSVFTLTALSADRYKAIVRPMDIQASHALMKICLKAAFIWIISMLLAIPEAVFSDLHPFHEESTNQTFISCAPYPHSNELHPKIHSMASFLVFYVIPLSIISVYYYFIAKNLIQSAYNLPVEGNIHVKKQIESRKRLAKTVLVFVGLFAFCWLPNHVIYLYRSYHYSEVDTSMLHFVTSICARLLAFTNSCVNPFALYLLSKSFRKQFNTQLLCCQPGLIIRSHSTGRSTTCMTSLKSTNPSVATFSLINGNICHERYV

## CC(C)CC(CC(C)C)NC(=O)[C@H](Cc1cnc[nH]1)NC(=O)CNC(=O)[C@@H](NC(=O)[C@H](C)NC(=O)[C@H](Cc1c[nH]c2ccccc12)NC(=O)[C@H](CCC(N)=O)NC(=O)[C@@H](Cc1ccccc1)NC(=O)COCC(=O)Nc1ccc(CNC(=O)CN2CCN(CC(=O)O)CCN(CC(=O)O)CCN(CC(=O)O)CC2)cc1)C(C)C [[68Ga]-NeoB, metal not drawn]
GRPR [1]; Breast N=5, [68Ga]-NeoB Negative, conventional imaging Positive
  Number of lesions: 44
GRPR [1]; Breast N=5, [68Ga]-NeoB Negative, conventional imaging Total
  Number of lesions: 44
GRPR [1]; Breast N=5, [68Ga]-NeoB Positive, conventional imaging Negative
  Number of lesions: 37
GRPR [1]; Breast N=5, [68Ga]-NeoB Positive, conventional imaging Positive
  Number of lesions: 48
GRPR [1]; Breast N=5, [68Ga]-NeoB Positive, conventional imaging Total
  Number of lesions: 85
GRPR [1]; Breast N=5, [68Ga]-NeoB Total, conventional imaging Negative
  Number of lesions: 37
GRPR [1]; Breast N=5, [68Ga]-NeoB Total, conventional imaging Positive
  Number of lesions: 92
GRPR [1]; Breast N=5, [68Ga]-NeoB Total, conventional imaging Total
  Number of lesions: 129
GRPR [1]; Breast cancer N=5
  lesions identified by conventional imaging also identified by [68Ga]-NeoB: 52.2%
GRPR [1]; Colorectal N=5, [68Ga]-NeoB Negative, conventional imaging Positive
  Number of lesions: 43
GRPR [1]; Colorectal N=5, [68Ga]-NeoB Negative, conventional imaging Total
  Number of lesions: 43
GRPR [1]; Colorectal N=5, [68Ga]-NeoB Positive, conventional imaging Negative
  Number of lesions: 0
GRPR [1]; Colorectal N=5, [68Ga]-NeoB Positive, conventional imaging Positive
  Number of lesions: 18
GRPR [1]; Colorectal N=5, [68Ga]-NeoB Positive, conventional imaging Total
  Number of lesions: 18
GRPR [1]; Colorectal N=5, [68Ga]-NeoB Total, conventional imaging Negative
  Number of lesions: 0
GRPR [1]; Colorectal N=5, [68Ga]-NeoB Total, conventional imaging Positive
  Number of lesions: 61
GRPR [1]; Colorectal N=5, [68Ga]-NeoB Total, conventional imaging Total
  Number of lesions: 61
GRPR [1]; Colorectal cancer N=5
  lesions identified by conventional imaging also identified by [68Ga]-NeoB: 29.5%
GRPR [1]; NSCL N=3, [68Ga]-NeoB Negative, conventional imaging Positive
  Number of lesions: 20
GRPR [1]; NSCL N=3, [68Ga]-NeoB Negative, conventional imaging Total
  Number of lesions: 20
GRPR [1]; NSCL N=3, [68Ga]-NeoB Positive, conventional imaging Negative
  Number of lesions: 0
GRPR [1]; NSCL N=3, [68Ga]-NeoB Positive, conventional imaging Positive
  Number of lesions: 10
GRPR [1]; NSCL N=3, [68Ga]-NeoB Positive, conventional imaging Total
  Number of lesions: 10
GRPR [1]; NSCL N=3, [68Ga]-NeoB Total, conventional imaging Negative
  Number of lesions: 0
GRPR [1]; NSCL N=3, [68Ga]-NeoB Total, conventional imaging Positive
  Number of lesions: 30
GRPR [1]; NSCL N=3, [68Ga]-NeoB Total, conventional imaging Total
  Number of lesions: 30
GRPR [1]; NSCL cancer N=3
  lesions identified by conventional imaging also identified by [68Ga]-NeoB: 33.3%
GRPR [1]; Prostate N=5, [68Ga]-NeoB Negative, conventional imaging Positive
  Number of lesions: 59
GRPR [1]; Prostate N=5, [68Ga]-NeoB Negative, conventional imaging Total
  Number of lesions: 59
GRPR [1]; Prostate N=5, [68Ga]-NeoB Positive, conventional imaging Negative
  Number of lesions: 1
GRPR [1]; Prostate N=5, [68Ga]-NeoB Positive, conventional imaging Positive
  Number of lesions: 10
GRPR [1]; Prostate N=5, [68Ga]-NeoB Positive, conventional imaging Total
  Number of lesions: 11
GRPR [1]; Prostate N=5, [68Ga]-NeoB Total, conventional imaging Negative
  Number of lesions: 1
GRPR [1]; Prostate N=5, [68Ga]-NeoB Total, conventional imaging Positive
  Number of lesions: 69
GRPR [1]; Prostate N=5, [68Ga]-NeoB Total, conventional imaging Total
  Number of lesions: 70
GRPR [1]; Prostate cancer N=5
  lesions identified by conventional imaging also identified by [68Ga]-NeoB: 14.5%
GRPR [1]; SCL N=1, [68Ga]-NeoB Negative, conventional imaging Positive
  Number of lesions: 1
GRPR [1]; SCL N=1, [68Ga]-NeoB Negative, conventional imaging Total
  Number of lesions: 1
GRPR [1]; SCL N=1, [68Ga]-NeoB Positive, conventional imaging Negative
  Number of lesions: 0
GRPR [1]; SCL N=1, [68Ga]-NeoB Positive, conventional imaging Positive
  Number of lesions: 1
GRPR [1]; SCL N=1, [68Ga]-NeoB Positive, conventional imaging Total
  Number of lesions: 1
GRPR [1]; SCL N=1, [68Ga]-NeoB Total, conventional imaging Negative
  Number of lesions: 0
GRPR [1]; SCL N=1, [68Ga]-NeoB Total, conventional imaging Positive
  Number of lesions: 2
GRPR [1]; SCL N=1, [68Ga]-NeoB Total, conventional imaging Total
  Number of lesions: 2
GRPR [1]; SCL cancer N=1
  lesions identified by conventional imaging also identified by [68Ga]-NeoB: 50%
GRPR [1]; overall cancer N=19, Nodal, [68Ga]-NeoB Negative, conventional imaging Positive
  Number of lesions: 36
GRPR [1]; overall cancer N=19, Nodal, [68Ga]-NeoB Negative, conventional imaging Total
  Number of lesions: 36
GRPR [1]; overall cancer N=19, Nodal, [68Ga]-NeoB Positive, conventional imaging Negative
  Number of lesions: 1
GRPR [1]; overall cancer N=19, Nodal, [68Ga]-NeoB Positive, conventional imaging Positive
  Number of lesions: 18
GRPR [1]; overall cancer N=19, Nodal, [68Ga]-NeoB Positive, conventional imaging Total
  Number of lesions: 19
GRPR [1]; overall cancer N=19, Nodal, [68Ga]-NeoB Total, conventional imaging Negative
  Number of lesions: 1
GRPR [1]; overall cancer N=19, Nodal, [68Ga]-NeoB Total, conventional imaging Positive
  Number of lesions: 54
GRPR [1]; overall cancer N=19, Nodal, [68Ga]-NeoB Total, conventional imaging Total
  Number of lesions: 55
GRPR [1]; overall cancer N=19, Overall, [68Ga]-NeoB Negative, conventional imaging Positive
  Number of lesions: 167
GRPR [1]; overall cancer N=19, Overall, [68Ga]-NeoB Negative, conventional imaging Total
  Number of lesions: 167
GRPR [1]; overall cancer N=19, Overall, [68Ga]-NeoB Positive, conventional imaging Negative
  Number of lesions: 38
GRPR [1]; overall cancer N=19, Overall, [68Ga]-NeoB Positive, conventional imaging Positive
  Number of lesions: 87
GRPR [1]; overall cancer N=19, Overall, [68Ga]-NeoB Positive, conventional imaging Total
  Number of lesions: 125
GRPR [1]; overall cancer N=19, Overall, [68Ga]-NeoB Total, conventional imaging Negative
  Number of lesions: 38
GRPR [1]; overall cancer N=19, Overall, [68Ga]-NeoB Total, conventional imaging Positive
  Number of lesions: 254
GRPR [1]; overall cancer N=19, Overall, [68Ga]-NeoB Total, conventional imaging Total
  Number of lesions: 292
GRPR [1]; overall cancer N=19, Skeletal, [68Ga]-NeoB Negative, conventional imaging Positive
  Number of lesions: 85
GRPR [1]; overall cancer N=19, Skeletal, [68Ga]-NeoB Negative, conventional imaging Total
  Number of lesions: 85
GRPR [1]; overall cancer N=19, Skeletal, [68Ga]-NeoB Positive, conventional imaging Negative
  Number of lesions: 12
GRPR [1]; overall cancer N=19, Skeletal, [68Ga]-NeoB Positive, conventional imaging Positive
  Number of lesions: 17
GRPR [1]; overall cancer N=19, Skeletal, [68Ga]-NeoB Positive, conventional imaging Total
  Number of lesions: 29
GRPR [1]; overall cancer N=19, Skeletal, [68Ga]-NeoB Total, conventional imaging Negative
  Number of lesions: 12
GRPR [1]; overall cancer N=19, Skeletal, [68Ga]-NeoB Total, conventional imaging Positive
  Number of lesions: 102
GRPR [1]; overall cancer N=19, Skeletal, [68Ga]-NeoB Total, conventional imaging Total
  Number of lesions: 114
GRPR [1]; overall cancer N=19, Skin/Superficial, [68Ga]-NeoB Negative, conventional imaging Positive
  Number of lesions: 1
GRPR [1]; overall cancer N=19, Skin/Superficial, [68Ga]-NeoB Negative, conventional imaging Total
  Number of lesions: 1
GRPR [1]; overall cancer N=19, Skin/Superficial, [68Ga]-NeoB Positive, conventional imaging Negative
  Number of lesions: 0
GRPR [1]; overall cancer N=19, Skin/Superficial, [68Ga]-NeoB Positive, conventional imaging Positive
  Number of lesions: 2
GRPR [1]; overall cancer N=19, Skin/Superficial, [68Ga]-NeoB Positive, conventional imaging Total
  Number of lesions: 2
GRPR [1]; overall cancer N=19, Skin/Superficial, [68Ga]-NeoB Total, conventional imaging Negative
  Number of lesions: 0
GRPR [1]; overall cancer N=19, Skin/Superficial, [68Ga]-NeoB Total, conventional imaging Positive
  Number of lesions: 3
GRPR [1]; overall cancer N=19, Skin/Superficial, [68Ga]-NeoB Total, conventional imaging Total
  Number of lesions: 3
GRPR [1]; overall cancer N=19, Soft Tissus/Visceral, [68Ga]-NeoB Negative, conventional imaging Positive
  Number of lesions: 45
GRPR [1]; overall cancer N=19, Soft Tissus/Visceral, [68Ga]-NeoB Negative, conventional imaging Total
  Number of lesions: 45
GRPR [1]; overall cancer N=19, Soft Tissus/Visceral, [68Ga]-NeoB Positive, conventional imaging Negative
  Number of lesions: 25
GRPR [1]; overall cancer N=19, Soft Tissus/Visceral, [68Ga]-NeoB Positive, conventional imaging Positive
  Number of lesions: 50
GRPR [1]; overall cancer N=19, Soft Tissus/Visceral, [68Ga]-NeoB Positive, conventional imaging Total
  Number of lesions: 75
GRPR [1]; overall cancer N=19, Soft Tissus/Visceral, [68Ga]-NeoB Total, conventional imaging Negative
  Number of lesions: 25
GRPR [1]; overall cancer N=19, Soft Tissus/Visceral, [68Ga]-NeoB Total, conventional imaging Positive
  Number of lesions: 95
GRPR [1]; overall cancer N=19, Soft Tissus/Visceral, [68Ga]-NeoB Total, conventional imaging Total
  Number of lesions: 120
GRPR [1]; regardless the cancer type, N=19
  lesions identified by conventional imaging also identified by [68Ga]-NeoB: 34.3%
GRPR [1]; soft tissue and visceral tissue regardless the cancer type
  lesions identified by conventional imaging also identified by [68Ga]-NeoB: 52.6%
[2]
  estimated effective dose per exam: 7.25 mSv
Clinical [3]; lesion / region of reference
  SUV: ~1 SUV
Clinical [3]; lesion / spleen or MBP (aorta or heart)
  SUV: > 1 SUV
Clinical [4]; overall (breast tumors), highest SUVmax, overall
  SUV at 2.5 h: 23.1 SUV
Clinical [4]; overall locations (prostatic tumors), highest SUVmean, overall locations
  SUV at 1.5 h: 11.6 SUV
Clinical [4]; soft tissue/visceral (breast cancer), highest SUVmax, dosimetry group, breast cancer N=2, soft tissue/visceral, 2 h
  SUV at 2 h: 25.8 SUV
Clinical [4]; soft tissue/visceral (breast cancer), highest SUVmax, dosimetry group, breast cancer N=2, soft tissue/visceral
  SUV at 4 h: 26.4 SUV
Clinical [4]; soft tissue/visceral (breast cancer), highest SUVmean, dosimetry group, breast cancer N=2, soft tissue/visceral, 15 minutes
  SUV at 0.25 h: 9.24 SUV
Clinical [4]; soft tissue/visceral (breast cancer), highest SUVmean, dosimetry group, breast cancer N=2, soft tissue/visceral
  SUV at 4 h: 9.14 SUV
Clinical [4]; soft tissue/visceral (breast tumors), highest SUVmax, soft tissue/visceral
  SUV at 2.5 h: 22.1 SUV
Clinical [4]; soft tissue/visceral (prostatic tumors), highest SUVmean, soft tissue/visceral
  SUV at 1.5 h: 14 SUV
GRPR [5]
  time at which SUVmax values in lesions peaked: 4 h
  time at which SUVmean values in lesions peaked: 15 min
[6]
  calculated human dose extrapolated from animal model: 0.039 mSv/MBq
